# Measurements: publication PMC9687798, “Atypical Substrates of the Organic Cation Transporter 1” (Biomolecules, 2022)
# What was measured:
# wild-type human OCT2 = target: T1, wild-type human OCT2 (Homo sapiens, UniProt O15244); experiment: Cellular uptake ratio, OCT2-overexpressing HEK293 cells vs empty vector; assay type: cell-based; conditions: for uptake by OCT2 (normalised to empty vector): 1 µM and 100 µM substance; for OCT2 transport category: based on ratio uptake data at 1 µM
# T1 sequence (O15244 1-555): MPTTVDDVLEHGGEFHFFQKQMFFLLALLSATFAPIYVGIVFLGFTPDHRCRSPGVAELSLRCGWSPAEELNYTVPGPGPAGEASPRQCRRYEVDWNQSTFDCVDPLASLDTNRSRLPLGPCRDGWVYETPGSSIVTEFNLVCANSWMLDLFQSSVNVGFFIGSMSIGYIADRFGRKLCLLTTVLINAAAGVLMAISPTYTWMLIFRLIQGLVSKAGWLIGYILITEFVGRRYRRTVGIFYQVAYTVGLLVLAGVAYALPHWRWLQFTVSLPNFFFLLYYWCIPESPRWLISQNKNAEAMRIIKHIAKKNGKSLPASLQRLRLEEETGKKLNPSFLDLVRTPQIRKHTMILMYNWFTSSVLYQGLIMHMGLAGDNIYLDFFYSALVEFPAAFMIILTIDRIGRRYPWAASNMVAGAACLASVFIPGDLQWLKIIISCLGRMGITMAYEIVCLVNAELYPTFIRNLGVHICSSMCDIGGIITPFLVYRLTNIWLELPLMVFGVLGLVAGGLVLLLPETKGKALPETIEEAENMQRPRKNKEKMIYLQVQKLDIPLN
# Outline: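 Flp-In HEK293 cells stably expressing transporter, or empty pcDNA5/FRT vector as control, incubated at 37 °C in HBSS with 10 mM HEPES, pH 7.4, with substrate. Uptake quantified by LC-MS with internal standard and normalised to total protein. Ratio = total uptake in transporter cells divided by that in empty-vector cells.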
# OCT1*3 (R61C) = target: T2, OCT1*3 (R61C) (Homo sapiens, UniProt O15245, R61C); experiment: Cellular uptake by HEK293 cells overexpressing OCT1*3; assay type: cell-based; conditions: for uptake by OCT1*3 in comparison to OCT1*1: 1 µM substance; for uptake of prostaglandins by OCT1*3 in comparison to wild-type: 1, 10 and 100 µM, 120 s
# T2 construct: expressed in transfected cells
# T2 sequence (O15245 1-554 R61C): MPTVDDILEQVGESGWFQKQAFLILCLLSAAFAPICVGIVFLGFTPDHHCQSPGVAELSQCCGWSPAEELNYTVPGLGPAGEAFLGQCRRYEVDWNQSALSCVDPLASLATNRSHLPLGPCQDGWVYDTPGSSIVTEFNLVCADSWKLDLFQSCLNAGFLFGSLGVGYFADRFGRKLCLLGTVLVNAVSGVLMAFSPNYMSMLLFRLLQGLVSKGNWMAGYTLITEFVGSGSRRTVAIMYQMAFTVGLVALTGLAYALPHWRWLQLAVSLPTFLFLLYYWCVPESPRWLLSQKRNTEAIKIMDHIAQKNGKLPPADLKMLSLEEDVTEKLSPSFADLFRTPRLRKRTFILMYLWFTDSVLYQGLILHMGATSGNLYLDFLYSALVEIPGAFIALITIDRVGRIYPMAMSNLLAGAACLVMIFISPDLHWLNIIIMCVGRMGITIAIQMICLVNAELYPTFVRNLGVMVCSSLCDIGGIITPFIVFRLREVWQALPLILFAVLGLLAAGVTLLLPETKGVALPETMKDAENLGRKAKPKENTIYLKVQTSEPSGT
# Description: The transport experiments were performed using HEK293 cells that overexpress human OCT1*1 (wild-type), mutant human OCT1 D474N, variant human OCT1*2 (M420del) and OCT1*3 (R61C), wild-type human OCT2, and OCT3 after stable transfection. The wild-type cell lines of OCT1 and OCT2, as well as the variant cell lines OCT1*2 and *3, were generated using the Flp-In system (Thermo Fisher Scientific, Darmstadt, Germany) as described in previous publications. The cell line overexpressing OCT3 was a kind gift from Dr. Koepsell and Dr. Gorbulev (University of Würzburg, Germany). Cells transfected with the empty pcDNA5/FRT vector were used for the transport experiments as a control cell line. All cells were cultured approximately up to passage 30.
# Forty-eight hours before the transport experiments, 600,000 cells were plated on 12-well plates pre-coated with poly-D-lysine and incubated at 37 °C with 5% CO2. The prepared 12-well plate with cells was positioned on a heating plate pre-warmed to 37 °C. After removing the medium, the cells were washed with 37 °C HBSS+ (10 mM HEPES in Hank’s balanced salt solution, pH 7.4). Then, one pre-defined concentration of a substrate was added to each well. The incubation period was stopped by adding 2 mL of 4 °C HBSS+ and removing the cells from the heating plate. The cells were washed twice with 4 °C HBSS+. For cell lysis, the cells were incubated for 15 min with 500 µL of 80% acetonitrile (LGC Standards, Wesel, Germany), which contained a respective internal standard (Table 1).
# For time-dependent transport, the cells were incubated with 1 µM of the substance for 15 to 240 s to determine the linear uptake range ≥ 15 s. For concentration-dependent transport, the cells were incubated with defined substrate concentrations (0.1, 1, 10, 30, 100, 300, 600, 1000 µM) for the respective pre-defined incubation times. […]; 100 µM) and pre-defined incubation times. The uptake by a transporter was normalised to the uptake by empty vector-transfected cells. […] The results of transport experiments were normalized to the total protein concentration per well. Total protein quantification was performed using a bicinchoninic acid assay with bovine serum albumin as standard.
# The ratios of cellular uptake were calculated by dividing the total uptake of transporter-overexpressing cells by the total uptake into empty vector transfected cells. The concentration-dependent cellular net uptake was used for analysis of transport kinetics by subtracting for each substrate concentration the uptake of empty vector-transfected cells from the uptake of transporter-overexpressing cells. The transport kinetic parameters Vmax and KM were determined with non-linear regression by using the Michaelis–Menten equation for net uptake data and by using the Michaelis–Menten equation extended with a linear term for total uptake data (GraphPad Prism 5.01, GraphPad software, LA Jolla, CA, USA). The intrinsic clearance Clint was expressed with the ratio of Vmax and KM.
uptake by OCT2 (normalised to empty vector) (wild-type human OCT2),uptake by OCT1*3 in comparison to OCT1*1 (OCT1*3 (R61C)),Structure (SMILES),OCT2 transport category (wild-type human OCT2),uptake of prostaglandins by OCT1*3 in comparison to wild-type (OCT1*3 (R61C))
cellular uptake by OCT2 was observed,reduction in uptake,"Nc1ccn([C@H]2CC[C@@H](CO)O2)c(=O)n1 [Zalcitabine, zalcitabine]",+ (good substrates of OCTs when the intrinsic clearance is between 5–15 or the ratio is 2–10),
,to a small extent,"N=C(N)c1ccc(OCCCCCOc2ccc(C(=N)N)cc2)cc1 [Pentamidine, pentamidine]","0 (no transport by OCT1, OCT2, and OCT3 occurred (i.e., no kinetic parameters or uptake ratio <2 without significance))",
cellular uptake by OCT2 was observed,reduction in uptake,"Nc1nc(=O)n([C@@H]2CS[C@H](CO)O2)cc1F [Emtricitabine, emtricitabine]",,
,,"N[C@@H](Cc1ccc(O)c(O)c1)C(=O)O [Levodopa, levodopa]","0 (no transport by OCT1, OCT2, and OCT3 occurred (i.e., no kinetic parameters or uptake ratio <2 without significance))",
only minimal,reduction in uptake,"COc1cc(Cc2cnc(N)nc2N)cc(OC)c1OC [Trimethoprim, trimethoprim]",+/− (poor transport with a Clint < 5 or ratio between 1–2 with statistical significance (p < 0.05)),
,,"CCCCC[C@H](O)/C=C/[C@H]1[C@H](O)CC(=O)[C@@H]1C/C=C\CCCC(=O)O [Prostaglandin E2, prostaglandin E2]",,reduced to the level of the control cell line
,,"CCCCC[C@H](O)/C=C/[C@@H]1[C@@H](C/C=C\CCCC(=O)O)[C@@H](O)C[C@H]1O [Prostaglandin F2α, prostaglandin F2α]",,reduced to the level of the control cell line
